From paper PMC5487681, “Identification of Antifungal H^+-ATPase Inhibitors with Effect on Plasma Membrane Potential” (Antimicrobial Agents and Chemotherapy, 2017)
Where two headings read alike, the source gives them in different places. Residues, ends and D or L forms follow the SMILES beside them.

Tests used:
[1] = tested on: Hep-G2 cells; assay: cells; type: cell-based, human
Protocol: In a tissue culture-treated 96-well plate (catalog number 655180; Grenier), 10,000 human hepatocyte Hep-G2 cells (catalog number 85011430; Sigma-Aldrich) were plated in 200 μl growth medium (Eagle minimal essential medium; catalog number M2279; Sigma-Aldrich), 2 mM L-glutamine (catalog number 03-020-1B; Biological Industries), 1% nonessential amino acids (catalog number XC-E1154/100; Biosera), 10% fetal bovine serum (catalog number BI-04-007-1A; Biological Industries) and incubated overnight at 37°C in 5% CO2. On the next day, fresh growth medium plus 2 μl compound in DMSO was added. The plate was incubated for a further 24 h at 37°C in 5% CO2. The medium was replaced with 100 μl freshly prepared 0.5 mg/ml 2,3-bis(2-methoxy-4-nitro-5-sulfophenyl)-5-[(phenylamino)carbonyl]-2H-tetrazolium hydroxide, sodium salt, solution (catalog number X4251; Sigma-Aldrich) in RPMI 1640 medium (catalog number R7509; Sigma-Aldrich) with 3.83 μg/ml phenazine methosulfate (catalog number P9625; Sigma-Aldrich) and incubated for 2 to 3 h at 37°C in 5% CO2. The color reaction was measured on a Victor X5 plate reader (PerkinElmer) by determination of the OD450 and the half-maximal (50%) effective concentration (EC50) was calculated.

[2] = Compound precipitation in the fungal growth medium; type: physicochemical; settings: fungal growth medium (RPMI), footnotes of Table 1
Protocol: (§1) The following fungal isolates were used: Saccharomyces cerevisiae ATCC 9763, Candida albicans SC5314, Candida parapsilosis ATCC 22019, Candida tropicalis Ct016, Candida glabrata ATCC 90030, Aspergillus fumigatus ATCC 13073, and Aspergillus flavus ATCC MYA-1005. Frozen stocks of yeast isolates in glycerol (final concentration, 20%) were prepared by growing the cells to log phase in YPD medium at 30°C and 150 rpm. Frozen stocks of mold spores were prepared by harvesting spores from 7-day-old potato glucose agar plates in phosphate-buffered saline, 0.1% Tween 80 and aliquoting these spores in the presence of glycerol (final concentration, 20%). The cells were stored at −80°C. The cells or spores were thawed and diluted to a final concentration of 0.5 × 10^5 to 2.5 × 10^5 CFU/ml in sterile Milli-Q H2O. […] The plate was incubated for 20 to 24 h at 34°C (72 h for molds), and the OD490 was measured on a Victor X5 (PerkinElmer) plate reader. Mold growth assay plates were also visually inspected. The MIC was defined as the lowest concentration inhibiting the visual growth of the microorganism. Standard errors were typically below 5%.

[3] = tested on: Candida spp.; assay: Fungal growth inhibition, Candida spp. (text summary of Table 1); type: cell-based; settings: 38 μM highest concentration tested for compounds 4 and 8, read-out: MIC for several of the Candida spp. tested
Protocol: as §1

[4] = target: Ca^2+-ATPase (SERCA1a) (Oryctolagus cuniculus, UniProt P04191); assay: ATP hydrolysis assay, SERCA; type: biochemical, rabbit; settings: Table 1
[5] = tested on: C. albicans cells; assay: Intracellular ATP (iATP), C. albicans; type: cell-based, Candida albicans; settings: for EC50: Candida albicans, 0.5 h, 30 min, dose response (Fig. 5C), read-out: EC50 of the increase in iATP levels, C. albicans; for Maximum iATP level (per well), C. albicans: highest concentrations of inhibitors tested (Fig. 5C)
Protocol: (§2) S. cerevisiae and C. albicans cells were grown and washed as described above for the membrane potential and integrity assay and resuspended in SG medium (0.7% yeast nitrogen base without amino acids [BD], 50 mM succinic acid adjusted to pH 7 with Trizma base) to OD600 of 0.2 and 0.1, respectively. One hundred microliters of an S. cerevisiae or C. albicans cell suspension and 1 μl compound in DMSO were incubated for 30 min. Twenty-five microliters of the suspension was then transferred to a black 96-well plate containing 25 μl BacTiter-Glo reagent (Promega, Madison, WI) and incubated for 15 min in the dark. The luminescence was read on SpectraMax X5 (Molecular Devices, Sunnyvale, CA) plate reader with a 10 s of shaking and a 0.5 s integration time. Standard curves at 10, 100, and 1,000 nM ATP were performed with every experiment.

[6] = tested on: S. cerevisiae cells; assay: Intracellular ATP (iATP), S. cerevisiae; type: cell-based, Saccharomyces cerevisiae; settings: for Effects on iATP levels, in words: S. cerevisiae and C. albicans (Fig. 5A, B), compared to compounds 14, 19 and BM2
Protocol: as §2

[7] = tested on: S. cerevisiae; assay: Medium acidification assay, S. cerevisiae; type: cell-based, Saccharomyces cerevisiae; settings: 50% inhibition of medium acidification, 12 min, n = 2 to 3
Protocol: (§3) Frozen stocks of C. albicans and S. cerevisiae were transferred to YPD agar plates and incubated overnight at 34°C. On the next day, the cells were suspended and washed twice in 50 mM KCl, pH 6.7, after pelleting of the cells by centrifugation at 3,000 × g for 5 min. The cells were then starved overnight at 4°C in the KCl solution. […] The pH drop was then monitored by determination of the fluorescent signal with excitation at 485 nm and emission at 538 nm on a Fluoroskan Ascent plate reader (Thermo Fisher Scientific) for 12 min. The rate of medium acidification was calculated on the basis of the slope of the drop in fluorescence.

[8] = tested on: C. albicans; assay: Medium acidification assay, C. albicans; type: cell-based, Candida albicans
Protocol: as §3

[9] = ATP hydrolysis at pH 7.4 (compounds marked b)
[10] = Homo sapiens, HepG2, 24 h, medium with 10% fetal bovine serum, XTT readout, read-out: EC50 for Hep-G2 cells at 24 h
[11] = Saccharomyces cerevisiae, 0.2 h
[12] = Candida albicans, 0.2 h, 50% inhibition of medium acidification, 12 min, n = 2 to 3, read-out: IC50 for acidification, C. albicans

Ca^2+-ATPase (SERCA1a), sequence (P04191 1-994 isoform P04191-2): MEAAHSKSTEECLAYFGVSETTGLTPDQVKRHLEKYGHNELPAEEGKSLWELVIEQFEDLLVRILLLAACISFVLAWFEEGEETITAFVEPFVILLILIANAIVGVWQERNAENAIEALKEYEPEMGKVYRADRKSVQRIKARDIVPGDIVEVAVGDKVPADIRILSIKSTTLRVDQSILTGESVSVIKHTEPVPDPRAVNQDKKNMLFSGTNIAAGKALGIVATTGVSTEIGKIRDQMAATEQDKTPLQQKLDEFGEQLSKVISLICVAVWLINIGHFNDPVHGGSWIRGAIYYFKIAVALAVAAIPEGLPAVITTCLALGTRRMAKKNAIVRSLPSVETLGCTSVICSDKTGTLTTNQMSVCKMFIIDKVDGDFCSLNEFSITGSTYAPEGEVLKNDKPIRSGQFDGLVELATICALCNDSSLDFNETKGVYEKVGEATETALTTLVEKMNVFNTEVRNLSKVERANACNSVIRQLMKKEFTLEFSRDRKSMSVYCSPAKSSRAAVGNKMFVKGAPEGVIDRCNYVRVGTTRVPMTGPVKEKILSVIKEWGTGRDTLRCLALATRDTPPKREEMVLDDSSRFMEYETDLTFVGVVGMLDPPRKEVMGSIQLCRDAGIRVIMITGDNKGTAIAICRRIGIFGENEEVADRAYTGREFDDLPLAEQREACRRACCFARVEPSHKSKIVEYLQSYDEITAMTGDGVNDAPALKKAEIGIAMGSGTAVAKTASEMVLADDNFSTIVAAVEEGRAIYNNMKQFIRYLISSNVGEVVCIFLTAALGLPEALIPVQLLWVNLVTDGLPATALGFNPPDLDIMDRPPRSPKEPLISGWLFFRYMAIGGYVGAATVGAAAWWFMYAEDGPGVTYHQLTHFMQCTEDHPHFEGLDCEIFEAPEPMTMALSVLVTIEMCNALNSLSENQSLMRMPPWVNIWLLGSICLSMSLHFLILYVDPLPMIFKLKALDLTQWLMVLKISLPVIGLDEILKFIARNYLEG

Compound: N=C(N)NCCC[C@@H](N)C(=O)N[C@H](CCCNC(=N)N)C(=O)N[C@H](CCCNC(=N)N)C(=O)N[C@H](Cc1ccccc1)C(=O)N[C@H](Cc1c[nH]c2ccccc12)C(=O)N[C@H](Cc1c[nH]c2ccccc12)C(=O)N[C@H](Cc1ccccc1)C(=O)N[C@H](CCCNC(=N)N)C(=O)N[C@H](CCCNC(=N)N)C(=O)N[C@H](CCCNC(=N)N)C(N)=O [BM2, reference compound] (HELM PEPTIDE1{[dR].[dR].[dR].[dF].[dW].[dW].[dF].[dR].[dR].[dR].[am]}$$$$V2.0)
- Effect on mammalian Hep-G2 cells [1]: no effect
- EC50 ([1]; 24 h): > 100 µM

Compound: O=C1/C(=C/c2ccc(-c3cc(Cl)ccc3Cl)o2)C=C(c2ccccc2)N1c1ccccc1O [Compound 1]
- Compound precipitation observed in the growth medium at concentrations down to [2]: c Compound precipitation was observed in the growth medium at concentrations down to 15 μM.
- MIC [3]: > 150 µM

Compound: COc1ccc(-c2cc(C(=O)Nc3ccc(C(C)C)cc3)c3ccccc3n2)c(OC)c1 [Compound 3]
- Compound precipitation observed in the growth medium at concentrations down to [2]: e Compound precipitation was observed in the growth medium at concentrations down to 150 μM.
- MIC [3]: > 150 µM

Compound: CC1CCCCN1CC(O)Cn1c(-c2ccccc2)c(-c2ccccc2)c2ccc3ccccc3c21 (stereo not shown) [Compound 4]
- Compound precipitation observed in the growth medium at concentrations down to [2]: d Compound precipitation was observed in the growth medium at concentrations down to 48 μM.
- MIC [3]: > 38 µM

Compound: CCOc1ccc2nc3cc(NC(=O)c4cccc(Br)c4)ccc3c(N)c2c1 [Compound 5]
- Compound precipitation observed in the growth medium at concentrations down to [2]: f Compound precipitation was observed in the growth medium at concentrations down to 75 μM.

Compound: Cc1c(-c2ccccc2)[o+]c2ccccc2c1C#Cc1ccccc1 [Compound 6]
- Compound precipitation observed in the growth medium at concentrations down to [2]: d Compound precipitation was observed in the growth medium at concentrations down to 48 μM.
- IC50 [4, 9]: 3.4 ± 0.6 µM
- MIC [3]: > 150 µM

Compound: Oc1cccc(Nc2nc(-c3ccc(Cl)c(Cl)c3)cs2)c1 [Compound 7]
- Compound precipitation observed in the growth medium at concentrations down to [2]: d Compound precipitation was observed in the growth medium at concentrations down to 48 μM.
- IC50 [4, 9]: 3.8 ± 0.6 µM

Compound: COc1ccc(-c2cc(C(=O)Nc3ccc4c(c3)OCCO4)c3ccccc3n2)c(OC)c1 [Compound 8]
- Compound precipitation observed in the growth medium at concentrations down to [2]: d Compound precipitation was observed in the growth medium at concentrations down to 48 μM.
- MIC [3]: > 38 µM

Compound: COc1cccc(Nc2nc(Cl)nc(Nc3cccc(OC)c3)n2)c1 [Compound 9]
- Compound precipitation observed in the growth medium at concentrations down to [2]: d Compound precipitation was observed in the growth medium at concentrations down to 48 μM.
- MIC [3]: > 150 µM

Compound: CCCCOc1ccc(C2C(C#N)=C(N)Oc3cc(O)ccc32)cc1 (stereo not shown) [Compound 11]
- Compound precipitation observed in the growth medium at concentrations down to [2]: d Compound precipitation was observed in the growth medium at concentrations down to 48 μM.
- MIC [3]: > 150 µM

Compound: COc1ccc(Cn2c(SCc3cc(C)ccc3C)nc3cc(OC)c(OC)cc3c2=N)cc1 [Compound 12]
- Compound precipitation observed in the growth medium at concentrations down to [2]: e Compound precipitation was observed in the growth medium at concentrations down to 150 μM.
- IC50 ([4]; ATP hydrolysis at pH 7): > 105 µM
- MIC [3]: > 150 µM

Compound: CCCCc1nc2sc3c(NCCCN(C)C)ncnc3c2c2c1CCCC2 [Compound 14]
- EC50 [1, 10]: 2.3 µM
- Increase in iATP levels compared to untreated control, C. albicans ([5]; 30 min of treatment): 1,500%
- EC50 [5]: 13 µM
- Maximum iATP level (per well), C. albicans [5]: about 500 nM
- iATP levels in the presence of oligomycin, S. cerevisiae ([6]; 30 min, oligomycin A at 40 μM): comparable to those for control cells
- Increase in iATP levels compared to untreated control, S. cerevisiae ([6]; 30 min of treatment, species of the BM2 value not given): 200%
- IC50 [7, 11]: 11.2 ± 2.7 µM
- IC50 [8, 12]: 6.6 ± 2.5 µM

Compound: CCCCc1nc2sc3c(NCCCN(C)C)nc(SC)nc3c2c2c1CCC2 [Compound 15]
- EC50 [1, 10]: 2.8 ± 0.1 µM
- IC50 [7, 11]: 1.7 ± 0.1 µM
- IC50 [8, 12]: 1.6 µM

Compound: CN(C)CCCNc1ncnc2c1sc1nc(N3CCCCC3)c3c(c12)CCCC3 [Compound 16]
- EC50 [1, 10]: 2.6 ± 0.9 µM
- IC50 [7, 11]: 7.6 ± 3.4 µM
- IC50 [8, 12]: 3.4 ± 1.6 µM

Compound: CCc1nc2sc3c(NCCCN(C)C)ncnc3c2c2c1CCCC2 [Compound 17]
- EC50 [1, 10]: 5.8 ± 1.1 µM
- Effects on iATP levels, in words [6]: minimal effects
- IC50 [7, 11]: 39.6 ± 10.3 µM
- IC50 [8, 12]: 19.1 ± 1.7 µM

Compound: CN(C)CCCNc1ncnc2c1sc1nc(-c3ccccc3)c3c(c12)CCC3 [Compound 18]
- EC50 [1, 10]: 3.6 ± 1.1 µM
- IC50 [7, 11]: 12.5 ± 1.1 µM
- IC50 [8, 12]: 8.8 ± 0.4 µM

Compound: CCN(CC)CCCNc1nc(SC)nc2c1sc1nc(-c3ccccc3)c3c(c12)CCC3 [Compound 19]
- EC50 [1, 10]: 24.2 ± 0.5 µM
- Toxicity window between C. albicans and Hep-G2 cells ([1]; human, 24 h): 3 fold
- EC50 [5]: 7 µM
- Maximum iATP level (per well), C. albicans [5]: about 500 nM
- IC50 [7, 11]: 2.3 ± 0.1 µM
- IC50 [8, 12]: 2.3 ± 0.5 µM

Compound: O=c1c2ccccc2[se]n1-c1ccccc1 [Ebselen, reference compound]
- EC50 [1, 10]: 10.7 ± 7 µM
- IC50 [7, 11]: 7.6 µM
- IC50 [8, 12]: 9.4 ± 2.1 µM
- IC50 ([8]; Candida albicans, read-out: IC50 for C. albicans, extracellular acidification): 11 µM

Compound: [O]=[V]([O-])([O-])[O-] [Vanadate, reference compound]
- EC50 ([1]; 24 h, medium with 10% fetal bovine serum, XTT readout, read-out: EC50 for Hep-G2 cells at 24 h): > 500 µM
- Effects on iATP levels, in words [6]: minimal effects
- IC50 [7]: > 40 µM
- IC50 ([8]; 50% inhibition of medium acidification, 12 min, n = 2 to 3, read-out: IC50 for acidification, C. albicans): > 40 µM
